For one compound, solubility results are on record in US9981988B2, “Polymorphic forms and co-crystals of a c-Met inhibitor” (AMGEN, INC., priority 2014, dated 2018).

The data set is described as follows: Solubility in organic solvents. In kind it is physicochemical. The note with it: 20 °C, organic solvent or mixture, thermodynamic from solid; about 20 to about 25° C.; solvent not given. The protocol:
In all studies, excess solid of the compound was allowed to equilibrate for at least 12 hours while stirring.

The solubility is the dissolved amount per volume that the medium holds.

As for `COCCOc1cnc2ccn([C@H](C)c3nnc4c(F)cc(-c5cnn(C)c5)cn34)c(=O)c2c1` [DMSO hemisolvate form of Compound M, 6-{(1R)-1-[8-fluoro-6-(1-methyl-1H-pyrazol-4-yl)[1,2,4]triazolo[4,3-a]pyridin-3-yl]ethyl}-3-(2-methoxyethoxy)-1,6-naphthyridin-5(6H)-one], the solubility is about 164 mg/mL.
